Measurements from PMC6886737 (Bioorganic & medicinal chemistry letters, 2019).
One block for each molecule: values may come before it.

Assays:
HCT116 cell line = assay: CellTiter-Glo proliferation assay; assay type: cell-based
CDK14 [1] = target: T1, CDK14 (Homo sapiens, UniProt O94921); assay: Biotin JNK-IN-7 pull-down assay, cellular CDK14 engagement; conditions: for activity in the cellular pull-down assay / concentration at which CDK14 pulldown is blocked / effects shown: cells treated 4 h
Target sequence in this assay (O94921 whole entry): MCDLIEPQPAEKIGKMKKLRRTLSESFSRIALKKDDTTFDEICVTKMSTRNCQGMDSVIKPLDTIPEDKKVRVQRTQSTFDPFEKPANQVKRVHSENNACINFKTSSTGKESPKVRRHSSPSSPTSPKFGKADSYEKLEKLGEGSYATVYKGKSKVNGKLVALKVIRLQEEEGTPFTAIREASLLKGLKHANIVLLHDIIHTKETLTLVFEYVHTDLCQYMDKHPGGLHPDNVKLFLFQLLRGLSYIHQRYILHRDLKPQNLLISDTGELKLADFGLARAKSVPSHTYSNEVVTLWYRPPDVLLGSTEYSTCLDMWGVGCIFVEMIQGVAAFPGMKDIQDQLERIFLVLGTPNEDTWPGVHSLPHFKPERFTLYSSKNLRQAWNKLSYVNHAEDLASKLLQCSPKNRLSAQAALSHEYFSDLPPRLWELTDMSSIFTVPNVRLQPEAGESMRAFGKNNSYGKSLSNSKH

CDK14 [2] = target: T1, CDK14; assay: LanthaScreen CDK14 binding assay
Target sequence in this assay (O94921 whole entry): as above
Target sequence in this assay (Q8ND76 whole entry partner): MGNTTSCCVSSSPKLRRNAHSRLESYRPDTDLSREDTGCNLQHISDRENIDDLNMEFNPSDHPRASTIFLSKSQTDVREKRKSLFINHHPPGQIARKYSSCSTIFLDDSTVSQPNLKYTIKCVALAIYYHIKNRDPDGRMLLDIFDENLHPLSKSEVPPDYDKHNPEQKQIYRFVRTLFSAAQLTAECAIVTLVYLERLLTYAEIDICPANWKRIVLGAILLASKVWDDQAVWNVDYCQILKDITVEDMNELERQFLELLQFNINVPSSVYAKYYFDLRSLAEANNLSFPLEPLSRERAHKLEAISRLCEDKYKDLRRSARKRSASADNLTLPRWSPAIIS

CDK16 = CDK16 (Homo sapiens, UniProt Q00536); assay: KiNativ profiling; assay type: cell-based; conditions: read-out: CDK16 percent inhibition relative to DMSO
Chain of CDK16 (Q00536 whole entry): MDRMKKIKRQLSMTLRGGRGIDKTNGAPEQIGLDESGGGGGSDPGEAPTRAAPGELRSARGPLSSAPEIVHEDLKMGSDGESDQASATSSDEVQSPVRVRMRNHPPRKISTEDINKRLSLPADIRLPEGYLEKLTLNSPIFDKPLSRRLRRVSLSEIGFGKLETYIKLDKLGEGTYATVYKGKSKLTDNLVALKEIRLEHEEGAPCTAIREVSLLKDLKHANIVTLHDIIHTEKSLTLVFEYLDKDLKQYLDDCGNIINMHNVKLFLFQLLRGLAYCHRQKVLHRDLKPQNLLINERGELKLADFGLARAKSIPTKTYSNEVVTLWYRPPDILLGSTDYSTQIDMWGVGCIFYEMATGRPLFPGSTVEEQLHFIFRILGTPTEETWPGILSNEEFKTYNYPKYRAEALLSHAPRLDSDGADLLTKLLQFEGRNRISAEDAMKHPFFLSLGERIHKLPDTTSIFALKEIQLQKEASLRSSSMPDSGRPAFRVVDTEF

CDK2 = CDK2 (Homo sapiens, UniProt P24941); assay: KiNativ profiling; assay type: cell-based; conditions: read-out: CDK2 percent inhibition relative to DMSO
CDK10 = CDK10 (Homo sapiens, UniProt Q15131); assay: KiNativ profiling; assay type: cell-based; conditions: read-out: CDK10 percent inhibition relative to DMSO
Chain of CDK10 (Q15131 whole entry): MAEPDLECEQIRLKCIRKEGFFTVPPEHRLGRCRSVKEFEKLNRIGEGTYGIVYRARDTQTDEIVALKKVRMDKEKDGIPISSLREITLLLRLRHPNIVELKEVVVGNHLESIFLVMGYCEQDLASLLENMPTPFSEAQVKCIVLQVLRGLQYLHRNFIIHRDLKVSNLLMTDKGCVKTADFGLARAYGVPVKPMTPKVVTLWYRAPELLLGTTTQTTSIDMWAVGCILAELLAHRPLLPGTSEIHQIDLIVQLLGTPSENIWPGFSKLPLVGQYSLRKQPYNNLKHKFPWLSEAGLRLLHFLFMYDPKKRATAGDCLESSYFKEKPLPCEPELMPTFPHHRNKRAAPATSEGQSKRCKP

SMILES: C=CC(=O)Nc1cccc(C(=O)Nc2ccc(NC(=O)c3n[nH]cc3NC(=O)c3c(Cl)cccc3Cl)c(C)c2)c1.O=C(O)C(F)(F)F [Compound 47]
CDK14 binding potency (CDK14 [2]): not tolerated by CDK14

SMILES: CN(C)C/C=C/C(=O)Nc1cccc(S(=O)(=O)N2CCC(NC(=O)c3n[nH]cc3NC(=O)c3ccccc3)CC2)c1.O=C(O)C(F)(F)F [Compound 107]
CDK14 binding potency (CDK14 [2]): potent CDK14 inhibition | HCT116 toxicity (HCT116 cell line): reduced HCT116 toxicity

SMILES: CN(C)C/C=C/C(=O)Nc1cccc(C(=O)Nc2ccc(NC(=O)c3n[nH]cc3NC(=O)c3c(Cl)cccc3Cl)cc2)c1.O=C(O)C(F)(F)F [Compound 46]
concentration at which CDK14 pulldown is blocked / effects shown (CDK14 [1]): 500 to 1000 nM

SMILES: C=CC(=O)Nc1cccc(C(=O)N2CCC(NC(=O)c3n[nH]cc3NC(=O)c3c(Cl)cccc3Cl)CC2)c1.O=C(O)C(F)(F)F [Compound 27]
concentration at which CDK14 pulldown is blocked / effects shown (CDK14 [1]): 500 to 1000 nM

SMILES: O=C(NC1CCNCC1)c1n[nH]cc1NC(=O)c1c(Cl)cccc1Cl [AT7519, N-(4-piperidinyl)-4-(2,6-dichlorobenzoylamino)-1H-pyrazole-3-carboxamide, reference compound]
CDK14 cellular engagement screen result (CDK14 [1]; 1 μM, screen of library of reported CDK inhibitors): efficient CDK14 inhibitor

SMILES: CN(C)CC/C=C/C(=O)Nc1ccc(N2CCC(NC(=O)c3n[nH]cc3NC(=O)c3c(Cl)cccc3Cl)CC2)cc1.O=C(O)C(F)(F)F [Compound 54]
HCT116 toxicity (HCT116 cell line): low HCT116 toxicity

SMILES: Cc1cc(NC(=O)c2cccc(NC(=O)/C=C/CN(C)C)c2)ccc1NC(=O)c1n[nH]cc1NC(=O)c1c(Cl)cccc1Cl.O=C(O)C(F)(F)F [Compound 48]
CDK14 binding potency (CDK14 [2]): not tolerated by CDK14

Continued, in another order:

activity in the cellular pull-down assay (CDK14 [1]): not active, or weakly active
SMILES: CN(C)CC/C=C/C(=O)Nc1cccc(N2CCC(NC(=O)c3n[nH]cc3NC(=O)c3c(Cl)cccc3Cl)CC2)c1.O=C(O)C(F)(F)F [Compound 56]
HCT116 toxicity (HCT116 cell line): low HCT116 toxicity

activity in the cellular pull-down assay (CDK14 [1]): not active, or weakly active
SMILES: CN(C)CC/C=C/C(=O)Nc1ccc(S(=O)(=O)N2CC[C@@H](NC(=O)c3n[nH]cc3NC(=O)c3c(Cl)cccc3Cl)C2)cc1.O=C(O)C(F)(F)F [Compound 68]

inhibition at 1 µM (CDK16): > 75% | inhibition at 1 µM (CDK2): > 75% | inhibition at 1 µM (CDK10): > 75% | concentration for complete inhibition of CDK14 pull-down (CDK14 [1]): below 1 μM
SMILES: CN(C)C/C=C/C(=O)Nc1cccc(S(=O)(=O)N2CCC(NC(=O)c3n[nH]cc3NC(=O)c3c(Cl)cc(Cl)cc3Cl)CC2)c1.O=C(O)C(F)(F)F [Compound 100]
